From PMC4838840 (2016)

Key:
[1] = tested on: BCL-2 (DNA) (DNA, G4) AGGGGGCCGTGGGGTGGGAGCTGGGG; experiment: fluorescence enhancement; details: 40 mM K+; 20 mM Tris HCl pH 7.0; F/F0 458-fold
[2] = tested on: VEGF (RNA, G4) GGAGGAGGGGGAGGAGGA; experiment: fluorescence titration; details: 40 mM K+; 20 mM Tris HCl pH 7.0, 25 °C, 2 μM ThT, 1:1 fit
[3] = tested on: ZIC1 (RNA, G4) GGGUGGGGGGGGCGGGGGAGGCCGGGG; experiment: fluorescence titration; details: 40 mM K+; 20 mM Tris HCl pH 7.0, 25 °C, 2 μM ThT, 1:1 fit
[4] = tested on: Tel22 (DNA) (DNA, G4) AGGGTTAGGGTTAGGGTTAGGG; experiment: fluorescence enhancement; details: 40 mM K+; 20 mM Tris HCl pH 7.0; F/F0 1339-fold
[5] = tested on: Tel22 (RNA) (RNA, G4) AGGGUUAGGGUUAGGGUUAGGG; experiment: fluorescence enhancement; details: 40 mM K+; 20 mM Tris HCl pH 7.0, 2 μM ThT, 4 μM RNA; F/F0 440-fold
[6] = tested on: ERSI (RNA, G4) GGGUAGGGGCAAAGGGGCUGGGG; experiment: fluorescence titration; details: 40 mM K+; 20 mM Tris HCl pH 7.0, 25 °C, 2 μM ThT, 1:1 fit
[7] = tested on: Spinach (RNA, aptamer) GCAGCCGGCUUGUUGAGUAGAGUGUGAGCUCCGUAACUGGUCGCGUC/GACGCGACCGAAUGAAAUGGUGAAGGACGGGUCCAGCCGGCUGC; experiment: fluorescence enhancement; details: 40 mM K+; 20 mM Tris HCl pH 7.0, 2 μM ThT, 4 μM RNA; F/F0 487-fold
[8] = tested on: ssAf20 (DNA) (DNA, single strand) CAATTGTATATATTCG; experiment: fluorescence enhancement; details: 40 mM K+; 20 mM Tris HCl pH 7.0; F/F0 59-fold
[9] = tested on: TRF2 (RNA, G4) CGGGAGGGCGGGGAGGGC; experiment: fluorescence titration; details: 40 mM K+; 20 mM Tris HCl pH 7.0, 25 °C, 2 μM ThT, 1:1 fit
[10] = tested on: ssAf22 (RNA, single strand) UGAGCUUAAUUGUAUAUAUUCG; experiment: fluorescence titration; details: 40 mM K+; 20 mM Tris HCl pH 7.0, 25 °C, 2 μM ThT, 1:1 fit
[11] = tested on: ADAM10 (RNA, G4) GGGGGACGGGUAGGGGCGGGAGGUAGGGG; experiment: fluorescence titration; details: 40 mM K+; 20 mM Tris HCl pH 7.0, 25 °C, 2 μM ThT, 1:1 fit
[12] = tested on: BCL-2 (RNA) (RNA, G4) AGGGGGCCGUGGGGUGGGAGCUGGGG; experiment: fluorescence titration; details: 40 mM K+; 20 mM Tris HCl pH 7.0, 25 °C, 2 μM ThT, 1:1 fit
[13] = tested on: HP18 (DNA) (DNA, hairpin) CAGTACAGATCTGTACTG; experiment: fluorescence enhancement; details: 40 mM K+; 20 mM Tris HCl pH 7.0; F/F0 36-fold
[14] = tested on: ssAf20 (RNA) (RNA, single strand) CAAUUGUAUAUAUUCG; experiment: fluorescence titration; details: 40 mM K+; 20 mM Tris HCl pH 7.0, 25 °C, 2 μM ThT, 1:1 fit
[15] = tested on: C9orf72 (DNA) (DNA, G4) GGGGCCGGGGCCGGGGCCGGGGCC; experiment: fluorescence enhancement; details: 40 mM K+; 20 mM Tris HCl pH 7.0; F/F0 252-fold
[16] = tested on: HP18 (RNA) (RNA, hairpin) CAGUACAGAUCUGUACUG; experiment: fluorescence titration; details: 40 mM K+; 20 mM Tris HCl pH 7.0, 25 °C, 2 μM ThT, 1:1 fit
[17] = tested on: C9orf72 (RNA) (RNA, G4) GGGGCCGGGGCCGGGGCCGGGGCC; experiment: fluorescence titration; details: 40 mM K+; 20 mM Tris HCl pH 7.0, 25 °C, 2 μM ThT, 1:1 fit
[18] = tested on: dsAf16 (RNA) (RNA, duplex) CUUAAUUGUAUAUAUUCGCGAAUAUAUACAAUUAAG; experiment: fluorescence titration; details: 40 mM K+; 20 mM Tris HCl pH 7.0, 25 °C, 2 μM ThT, 1:1 fit
[19] = tested on: Bulges-TB1 (RNA, G4) UUGUGGUGGGUGGGUGGGU; experiment: fluorescence enhancement; details: 40 mM K+; 20 mM Tris HCl pH 7.0, 2 μM ThT, 4 μM RNA; F/F0 196-fold
[20] = tested on: tRNA-Cys fragment (RNA, G4) GGGGGUAUAGCUCAGUGGUAGAGCAUUUGA; experiment: fluorescence enhancement; details: 40 mM K+; 20 mM Tris HCl pH 7.0, 2 μM ThT, 4 μM RNA; F/F0 57-fold
[21] = tested on: tRNA-Ala fragment (RNA, G4) GGGGGUGUAGCUCAGUGGUAGAGCGCGUGC; experiment: fluorescence enhancement; details: 40 mM K+; 20 mM Tris HCl pH 7.0, 2 μM ThT, 4 μM RNA; F/F0 88-fold
[22] = tested on: dsAf16 (DNA) (DNA, duplex) CTTAATTGTATATATTCGCGAATATATACAATTAAG; experiment: fluorescence enhancement; details: 40 mM K+; 20 mM Tris HCl pH 7.0; F/F0 65-fold

binding [1]: yes | K [2]: (1.24 ± 0.15) × 10^5 M^-1 | K [3]: (0.56 ± 0.22) × 10^5 M^-1 | binding [4]: yes | binding [5]: yes | K [6]: (2.03 ± 0.12) × 10^5 M^-1 | binding [7]: yes | binding [8]: yes | K [9]: (0.62 ± 0.61) × 10^5 M^-1 | K [10]: (5.53 ± 1.59) × 10^4 M^-1 | K [11]: (2.60 ± 0.12) × 10^5 M^-1 | K [12]: (2.93 ± 0.27) × 10^5 M^-1 | binding [13]: yes | K [14]: (9.37 ± 1.28) × 10^4 M^-1 | binding [15]: yes | K [16]: (5.62 ± 1.94) × 10^4 M^-1 | K [17]: (1.92 ± 0.05) × 10^5 M^-1 | K [18]: (1.43 ± 1.01) × 10^5 M^-1 | binding [19]: yes | binding [20]: yes | binding [21]: yes | binding [22]: yes
Structure (SMILES): Cc1ccc2c(c1)sc(-c1ccc(N(C)C)cc1)[n+]2C
